Assay results taken from patent publication EP0298466A2, “Substituted alkene carboxylic acid amides and derivatives” (F. HOFFMANN-LA ROCHE AG, priority 1987, dated 1989).

Assays:
[1] = biological target: T1, Thromboxane Synthase (TXA₂ syn.) (Homo sapiens, UniProt P24557); assay: TXA₂ Synthesis Inhibition (microsomal fractions from human platelets); format: biochemical; conditions: human platelet microsomes, ¹⁴C-PGH₂ 10µM, 22° for 2 minutes; read-out: Inhibition of TXA₂ Synthetase IC₅₀
T1 construct: using microsomal fractions from human platelets as enzyme source; from tissue; host or cells: microsomal fraction of human platelets
T1 sequence (P24557 1-533): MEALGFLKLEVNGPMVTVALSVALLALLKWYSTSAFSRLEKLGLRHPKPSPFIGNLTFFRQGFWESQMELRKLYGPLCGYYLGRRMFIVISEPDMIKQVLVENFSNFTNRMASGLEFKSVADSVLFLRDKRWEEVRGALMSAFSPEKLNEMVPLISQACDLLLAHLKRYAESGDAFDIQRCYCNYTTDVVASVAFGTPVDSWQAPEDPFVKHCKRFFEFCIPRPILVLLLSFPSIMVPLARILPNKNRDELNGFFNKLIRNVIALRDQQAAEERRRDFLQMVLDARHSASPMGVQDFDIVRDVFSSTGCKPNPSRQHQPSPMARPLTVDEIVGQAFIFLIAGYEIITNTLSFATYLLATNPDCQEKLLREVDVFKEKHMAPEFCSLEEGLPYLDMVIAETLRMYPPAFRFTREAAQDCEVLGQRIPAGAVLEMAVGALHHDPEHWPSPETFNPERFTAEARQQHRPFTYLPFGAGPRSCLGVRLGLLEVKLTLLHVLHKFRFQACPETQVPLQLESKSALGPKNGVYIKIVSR
Method: Thromboxane Synthase (TXA₂ syn.) inhibitory activity is measured by following the conversion of […] using microsomal fractions from human platelets as enzyme source. In the aqueous incubation medium, the TXA₂ decomposes rapidly into TXB₂. The amount of TXA₂ syn, is adjusted so that under the conditions of the assay approximately 80-90% of the substrate, PGH₂, is converted to product in control tubes. To prepare ¹⁴C-PGH₂, ¹⁴C-AA(50-60mCi/mmole) is incubated with sheep seminal vesicular gland microsomes for 1.5 min, at 37° and then the ¹⁴C-PGH₂ is extracted with diethylether, purified on columns of Sephadex LH-20 or silicic acid, and stored in acetone at -70°C. Incubations are done as follows, Sufficient ¹⁴C-PGH₂ to yield a final substrate concentration of 10µM (about 30,000 cpm) is added to the incubation tubes and then the acetone is removed under nitrogen. The tubes are placed in an ice bath and then 215 µl of ice cold phosphate buffered saline, 10 µl of ethanol (control) or of test drug in ethanol and 25 µl of the microsomal suspension are added with mixing in that order as rapidly as possible. The tubes are incubated at 22° for 2 minutes, the reaction is stopped and then the radioactive products and the unconverted PGH₂ are extracted and analyzed by thin layer chromatography. The amount of ¹⁴C-PGH₂ converted to products is analyzed by thin layer chromatography. The amount of ¹⁴C-PGH₂ converted to products was used as a measure of TXA₂ synthase activity. Inhibitors were tested initially at a concentration of 100 µM. IC₅₀ values were calculated by linear regression analysis of successive 10 fold dilutions of the test compound concentration.

[2] = test system: PAF Induced Bronchoconstriction; assay: PAF Induced Bronchoconstriction Assay; format: in vivo, guinea pigs; conditions: Cavia porcellus; 1mg/Kg iv, 1 minute pretreatment, guinea pig, PAF challenge 1.0µg/kg intravenous; percent inhibition, spread = standard error of the mean
Method: Male guinea pigs (Hartley Strain, 400-500 g) were anesthetized with urethane (2 g/kg, i.p.). Each animals' trachea was cannulated and the guinea pigs were respirated using a Harvard small animal rodent respirator (3.0 cc stroke volume, 40 breaths per min.). Tracheal pressure was recorded from a cannula inserted in the trachea and connected to a Statham pressure Transducer.
The jugular vein was cannulated for administering compounds. Spontaneous breathing was arrested with succinylcholine (1.2 mg/kg, i.v.) administered 2 minutes prior to intravenous injection of platelet activating factor (PAF).
For the intravenous testing, the guinea pig is given a 5-minute pretreatment with propranolol at a dose of 0.1 mg/kg intravenously. The test compound is administered with a 1 minute pretreatment prior to intravenous challenge with PAF. The animal is then challenged with a 1.0µg/kg intravenous dose of PAF and the change in tracheal pressure is measured.
The change in tracheal pressure is determined by subtracting the steady state baseline achieved after administration of succinylcholine from the peak bronchoconstriction seen after challenge with PAF. The mean is calculated for each test compound and compared to the mean of the control animals to give the percent inhibition of bronchoconstriction. The standard error is calculated as the standard error of the mean.

PAF Binding = biological target: T2, PAF Binding (Canis lupus familiaris, UniProt A0A8I3NSH0); assay: PAF binding assay (³H-PAF, dog platelets); conditions: washed dog platelets (2 x 10⁷ platelets), 10 minutes at room temperature, read-out: Inhibition of PAF Binding IC₅₀
T2 construct: from tissue; host or cells: washed platelets from dog blood
T2 sequence (A0A8I3NSH0 1-343): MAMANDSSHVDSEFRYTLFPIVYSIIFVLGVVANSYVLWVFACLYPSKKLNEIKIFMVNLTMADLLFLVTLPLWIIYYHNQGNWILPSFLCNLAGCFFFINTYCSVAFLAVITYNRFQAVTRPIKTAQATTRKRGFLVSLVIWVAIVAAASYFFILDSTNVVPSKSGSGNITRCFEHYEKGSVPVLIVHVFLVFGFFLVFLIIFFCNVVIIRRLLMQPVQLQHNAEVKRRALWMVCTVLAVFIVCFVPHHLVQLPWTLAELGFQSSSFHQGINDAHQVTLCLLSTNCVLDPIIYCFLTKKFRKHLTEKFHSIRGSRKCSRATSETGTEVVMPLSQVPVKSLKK
Method: The binding assay was done in 400 µl polyethylene microcentrifuge tubes (Beckman) containing 50 µl of an oil mixture of 2 parts of Siliconol AR200 (Serva) and 1 part of Silicone Fluid (Arthur H. Thomas). Buffer, standards, or analogs (150 µl total volume) were added to the tubes. Radiolabelled ³H-PAF (50 µl) was then added to the tubes. The reaction was started by the addition of 50 µl of dog platelets (2 x 10⁷ platelets). The tubes were capped, inverted several times to mix, and incubated for 10 minutes at room temperature. The platelets were separated from the incubation mixture by centrifuging 1 minute in a Beckman Microfuge B centrifuge. The tip of the tubes were cut off, and the platelets were washed out of the tips with 200 µl of 50% methanol (Burdick and Jackson). Aquasol (NEN, 10 ml) was added and the radioactivity in the samples was determined using an LS 8100 Beckman liquid scintillation counter linked to a Techtran tape recorder. Data was processed through an in-house computer system. Alternatively, radioactivity was determined using a Searle Mark III liquid scintillation counter linked to a Iso-Data microprocessor.
Blood was collected from anesthesized or unanesthesized dogs into 50 ml plastic centrifuge tubes containing 3.8% sodium citrate as the anticoagulant (1 volume of citrate/9 volumes of blood). The red cells were removed by centrifugation for 15 minutes at 600 rpm (100-125 g) at room temperature. An aliquot of the supernatant platelet rich plasma (PRP) was saved for cell counting and the remainder was acidified to pH 6.5 with 0.15 M citric acid. The platelet pellet was obtained after a 10 minute centrifugation at 2000 rpm (1000 g) at room temperature. Washed platelets were prepared by resuspending the platelet pellet once with PBS containing 1 mM of EDTA, centrifuging as noted, and then resuspending the platelets in 0.1% of BSA/PBS. An aliquot of the washed platelets was counted. Platelets used for binding assays were diluted to 2 x 10⁷ platelets/assay tube (4 x 10⁸ platelets/ml). Platelet counting was done using a Royco Cell-Crit 921.

Row | Compound | IC50 [1] [nM] | inhibition in vivo at 1 mg/kg [2] [%] | IC50 (PAF Binding) [nM]
1 | O=C(C=C(c1ccccc1)c1ccccc1)NCCCCc1cccnc1 [3,3-Diphenyl-N-[4-(3-pyridinyl)butyl]-2-propenamide] | 100 to 1000 |  | 
2 | O=C(CC=C(c1ccccc1)c1ccccc1)NCCCCc1cccnc1 [4,4-Diphenyl-N-[4-(3-pyridinyl)butyl]-3-butenamide] | 1000 |  | 
3 | O=C(CCC=C(c1ccccc1)c1ccccc1)NCCCCc1cccnc1 [5,5-Diphenyl-N-[4-(3-pyridinyl)butyl]-4-pentenamide] | 100 to 1000 |  | 
4 | COc1cccc(-c2c(/C=C/C(=O)NCCCCc3cccnc3)ccc3ccc(OC)cc23)c1 [(E)-3-[7-methoxy-1-(3-methoxyphenyl)-2-naphthalenyl]-N-[4-(3-pyridinyl)butyl]-2-propenamide] |  | 62 | 8
5 | CCCCC1=C(/C=C/C(=O)N[C@H](C)CCCc2cccnc2)CCc2cc(OC)ccc21 [[R-(E)]-3-(1-Butyl-3,4-dihydro-6-methoxy-2-naphthalenyl)-N-[1-methyl-4-(3-pyridinyl)butyl]-2-propenamide] |  | 94 ± 2 | 
6 | CCCCc1c(/C=C/C(=O)N[C@H](C)CCCc2cccnc2)cc(OC)c2ccc(OC)cc12 [[R-(E)]-3-(1-Butyl-4,7-dimethoxy-2-naphthalenyl)-N-[1-methyl-4-(3-pyridinyl)butyl]-2-propenamide] |  | 80 | 3
7 | CCCCc1c(/C=C/C(=O)N[C@H](C)CCCc2cccnc2)cc(OC)c2ccccc12 [[R-(E)]-3-(1-Butyl-4-methoxy-2-naphthalenyl)-N-[1-methyl-4-(3-pyridinyl)butyl]-2-propenamide] |  | 90 | 1
8 | CCCCc1c(/C=C/C(=O)N[C@H](C)CCCc2cccnc2)ccc2c(OC)cccc12 [[R-(E)]-3-(1-Butyl-5-methoxy-2-naphthalenyl)-N-[1-methyl-4-(3-pyridinyl)butyl]-2-propenamide] |  | 50 | 6
9 | CCCCc1c(/C=C/C(=O)N[C@H](C)CCCc2cccnc2)ccc2cc(OC)ccc12 [[R-(E)]-3-(1-Butyl-6-methoxy-2-naphthalenyl)-N-[1-methyl-4-(3-pyridinyl)butyl]-2-propenamide] |  | 95 ± 1 | 7
10 | CCCCc1c(/C=C/C(=O)N[C@H](C)CCCc2cccnc2)ccc2ccc(OC)cc12 [[R-(E)]-3-(1-Butyl-7-methoxy-2-naphthalenyl)-N-[1-methyl-4-(3-pyridinyl)butyl]-2-propenamide] |  |  | 15
11 | CCCCCc1c(/C=C/C(=O)N[C@H](C)CCCc2cccnc2)sc2cc(OC)ccc12 [[R-(E)]-3-(6-Methoxy-3-pentylbenzo-[b]thien-2-yl)-N-[1-methyl-4-(3-pyridinyl)butyl]-2-propenamide] |  | 98 | 24
12 | CCCCCc1c(/C=C/C(=O)N[C@H](C)CCCc2cccnc2)oc2cc(OC)ccc12 [[R-(E)]-3-(6-Methoxy-3-pentylbenzofuran-2-yl)-N-[1-methyl-4-(3-pyridinyl)butyl]-2-propenamide] |  | 89 | 
13 | CCCCCC1=C(/C=C/C(=O)N[C@H](C)CCCc2cccnc2)Cc2cc(OC)ccc21 [[R-(E)]-3-(6-methoxy-3-pentylindene-2-yl)-N-[1-methyl-4-(3-pyridinyl)butyl]-2-propenamide] |  | 96 | 33
14 | COc1ccc(C2=C(/C=C/C(=O)N[C@H](C)CCCc3cccnc3)CCc3cc(OC)ccc32)cc1 [[R-(E)]-3-[3,4-Dihydro-6-methoxy-1-(4-methoxyphenyl)-2-naphthalenyl]-N-[1-methyl-4-(3-pyridinyl)butyl]-2-propenamide] |  | 95 ± 2 | 30
15 | COc1ccc(-c2c(/C=C/C(=O)N[C@H](C)CCCc3cccnc3)ccc3cc(OC)ccc23)cc1 [[R-(E)]-3-[6-Methoxy-1-(4-methoxyphenyl)-2-naphthalenyl]-N-[1-methyl-4-(3-pyridinyl)butyl]-2-propenamide] |  | 92 | 55

More lines, main results first:

Row | IC50 [1] [nM] | Compound | inhibition in vivo at 1 mg/kg [2] [%] | IC50 (PAF Binding) [nM]
16 | 1000 to 10000 | O=C(CCC=C(c1ccc(F)cc1)c1ccc(F)cc1)NCCCCc1cccnc1 [5,5-bis(4-fluorophenyl)-N-[4-(3-pyridinyl)butyl]-4-pentenamide] |  | 
17 | 1000 to 10000 | COc1ccc(C(=CCCC(=O)NCCCCc2cccnc2)c2ccc(OC)cc2)cc1 [5,5-bis(4-methoxyphenyl)-N-[4-(3-pyridinyl)butyl]-4-pentenamide] |  | 
18 | 100 | O=C(CCCC=C(c1ccccc1)c1ccccc1)NCCCCc1cccnc1 [6,6-Diphenyl-N-[4-(3-pyridinyl)butyl]-5-hexenamide] |  | 
19 | 100 to 10000 | O=C(CCCCC=C(c1ccccc1)c1ccccc1)NCCCCc1cccnc1 [7,7-Diphenyl-N-[4-(3-pyridinyl)butyl]-6-heptenamide] |  | 
20 | 100 to 1000 | O=C(CCCCCC=C(c1ccccc1)c1ccccc1)NCCCCc1cccnc1 [8,8-Diphenyl-N-[4-(3-pyridinyl)butyl]-7-octenamide] |  | 
21 | 10 to 100 | O=C(CCCCCCC=C(c1ccccc1)c1ccccc1)NCCCCc1cccnc1 [9,9-Diphenyl-N-[4-(3-pyridinyl)butyl]-8-nonenamide] |  | 
